PubChem BioAssay AID330 (DTP/NCI, 2004)
Where “and” joins values, the source holds several entries; their conditions need not be identical. Equal values may be shown once. Inconclusive results and toxic doses are left out.

System: P388 leukemia ip, CD2F1 mice, survival T/C
Test: NCI In Vivo Anticancer Drug Screen. Data for tumor model P388 Leukemia (intraperitoneal) in CD2F1 (CDF1) mice
Conditions: endpoint: median survival time, higher = longer survival
Outline: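 Mice carrying the transplanted tumor received test compound or vehicle. Survival was recorded in each group, and the value is the treated-group measurement divided by that of the vehicle-treated control group.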

[1] = dose: 12.5 mg/kg/injection, schedule: Q01DX005 (ip), vehicle: saline with Tween-80
[2] = dose: 25.0 mg/kg/injection, schedule: Q01DX005 (ip), vehicle: saline with Tween-80
[3] = dose: 50.0 mg/kg/injection, schedule: Q01DX005 (ip), vehicle: saline with Tween-80
[4] = dose: 50.0 mg/kg/injection, schedule: Q01DX009 (ip), vehicle: saline with Tween-80
[5] = dose: 100.0 mg/kg/injection, schedule: Q04DX003 (ip), vehicle: saline with Tween-80
[6] = dose: 400.0 mg/kg/injection, schedule: Q04DX003 (ip), vehicle: saline with Tween-80
[7] = dose: 100.0 mg/kg/injection, schedule: Q04DX002 (ip), vehicle: saline with Tween-80
[8] = dose: 200.0 mg/kg/injection, schedule: Q04DX002 (ip), vehicle: saline with Tween-80
[9] = dose: 100.0 mg/kg/injection, schedule: Q01DX009 (ip), vehicle: saline with Tween-80
[10] = dose: 200.0 mg/kg/injection, schedule: Q01DX009 (ip), vehicle: saline with Tween-80
[11] = dose: 400.0 mg/kg/injection, schedule: Q01DX009 (ip), vehicle: saline with Tween-80

Structure (SMILES): OP12(OC(C(F)(F)F)(C(F)(F)F)c3ccccc31)OC(C(F)(F)F)(C(F)(F)F)c1ccccc12
- T/C (dose: 100.0 mg/kg/injection, schedule: Q04DX002 (ip), vehicle: Klucel (hydroxypropylcellulose) (HPC)): 97 % of control
- T/C (dose: 200.0 mg/kg/injection, schedule: Q04DX002 (ip), vehicle: Klucel (hydroxypropylcellulose) (HPC)): 98 % of control

Structure (SMILES): O=c1[nH]c(=O)n(C2CC(O)C(CO)O2)cc1C(F)(F)F (configuration not stated)
- T/C (dose: 20.0 mg/kg/injection, schedule: Q01DX009 (ip), vehicle: saline with Tween-80): 111 % of control
- T/C (dose: 31.25 mg/kg/injection, schedule: Q01DX009 (ip), vehicle: Klucel (hydroxypropylcellulose) (HPC)): 120 % of control
- T/C (dose: 40.0 mg/kg/injection, schedule: Q01DX009 (ip), vehicle: saline with Tween-80): 117 % of control
- T/C (dose: 62.5 mg/kg/injection, schedule: Q01DX009 (ip), vehicle: Klucel (hydroxypropylcellulose) (HPC)): 151 % of control
- T/C (dose: 80.0 mg/kg/injection, schedule: Q01DX009 (ip), vehicle: saline with Tween-80): 119 % of control
- T/C (dose: 125.0 mg/kg/injection, schedule: Q01DX005 (ip), vehicle: Klucel (hydroxypropylcellulose) (HPC)): 152 % of control
- T/C (dose: 125.0 mg/kg/injection, schedule: Q01DX009 (ip), vehicle: Klucel (hydroxypropylcellulose) (HPC)): 178 % of control and 183 % of control
- T/C (dose: 160.0 mg/kg/injection, schedule: Q01DX009 (ip), vehicle: saline with Tween-80): 111 % of control
- T/C (dose: 250.0 mg/kg/injection, schedule: Q01DX005 (ip), vehicle: Klucel (hydroxypropylcellulose) (HPC)): 161 % of control
- T/C (dose: 250.0 mg/kg/injection, schedule: Q01DX009 (ip), vehicle: Klucel (hydroxypropylcellulose) (HPC)): 176 % of control
- T/C (dose: 320.0 mg/kg/injection, schedule: Q01DX009 (ip), vehicle: saline with Tween-80): 102 % of control
- T/C (dose: 500.0 mg/kg/injection, schedule: Q01DX005 (ip), vehicle: Klucel (hydroxypropylcellulose) (HPC)): 151 % of control
- T/C (dose: 500.0 mg/kg/injection, schedule: Q01DX009 (ip), vehicle: Klucel (hydroxypropylcellulose) (HPC)): 100 % of control and 104 % of control
- T/C (dose: 640.0 mg/kg/injection, schedule: Q01DX009 (ip), vehicle: saline with Tween-80): 88 % of control

Structure (SMILES): CC1(C)CC[P+](CC[P+]2(c3ccccc3)CCC(C)(C)c3ccccc32)(c2ccccc2)c2ccccc21 (configuration not stated)
- T/C (dose: 0.75 mg/kg/injection, schedule: Q01DX005 (ip), vehicle: saline): 103 % of control
- T/C (dose: 1.5 mg/kg/injection, schedule: Q01DX005 (ip), vehicle: saline): 101 % of control
- T/C (dose: 3.0 mg/kg/injection, schedule: Q01DX005 (ip), vehicle: saline): 103 % of control
- T/C (dose: 3.12 mg/kg/injection, schedule: Q01DX005 (ip), vehicle: suspension in saline): 89 % of control
- T/C [1]: 100 % of control
- T/C [2]: 100 % of control
- T/C [3]: 102 % of control

Structure (SMILES): CN1C(=O)N(C2CCCCC2)C(=O)C(C)(CN2CCCCC2)C1=O (configuration not stated)
- T/C (dose: 12.5 mg/kg/injection, schedule: Q01DX009 (ip), vehicle: saline with Tween-80): 102 % of control
- T/C (dose: 25.0 mg/kg/injection, schedule: Q01DX009 (ip), vehicle: saline with Tween-80): 100 % of control
- T/C [4]: 102 % of control
- T/C (dose: 50.0 mg/kg/injection, schedule: Q01DX009 (sc), vehicle: saline with Tween-80): 100 % of control
- T/C (dose: 200.0 mg/kg/injection, schedule: Q01DX009 (sc), vehicle: saline with Tween-80): 108 % of control

Structure (SMILES): CCOc1cc2c(cc1C/C=C/c1cc(OC)c(OC)c(OC)c1)OCO2
- T/C (dose: 15.0 mg/kg/injection, schedule: Q01DX005 (ip), vehicle: saline with Tween-80): 94 % of control
- T/C (dose: 30.0 mg/kg/injection, schedule: Q01DX005 (ip), vehicle: saline with Tween-80): 95 % of control
- T/C (dose: 60.0 mg/kg/injection, schedule: Q01DX005 (ip), vehicle: saline with Tween-80): 95 % of control

Structure (SMILES): CC(=O)NN1C(=O)Cc2ccccc2C1C(N)=O (configuration not stated)
- T/C (dose: 50.0 mg/kg/injection, schedule: Q01DX009 (ip), vehicle: Klucel (hydroxypropylcellulose) (HPC)): 103 % of control
- T/C (dose: 100.0 mg/kg/injection, schedule: Q01DX009 (ip), vehicle: Klucel (hydroxypropylcellulose) (HPC)): 111 % of control
- T/C (dose: 200.0 mg/kg/injection, schedule: Q01DX009 (ip), vehicle: Klucel (hydroxypropylcellulose) (HPC)): 103 % of control

Structure (SMILES): C=CCOc1ccccc1/C(Cl)=N/Nc1ccc([N+](=O)[O-])cc1[N+](=O)[O-]
- T/C [5]: 97 % of control
- T/C (dose: 200.0 mg/kg/injection, schedule: Q04DX003 (ip), vehicle: saline with Tween-80): 94 % of control
- T/C [6]: 89 % of control

Structure (SMILES): [Cu+].[NH-]CCCN=Cc1ccccc1O
- T/C (dose: 25.0 mg/kg/injection, schedule: Q01DX001 (ip), vehicle: saline sonified): 95 % of control
- T/C (dose: 50.0 mg/kg/injection, schedule: Q01DX001 (ip), vehicle: saline sonified): 105 % of control

Structure (SMILES): CCCCOP(=O)(O)OCCCC
- T/C (dose: 100.0 mg/kg/injection, schedule: Q01DX001 (ip), vehicle: Klucel (hydroxypropylcellulose) (HPC)): 111 % of control
- T/C (dose: 200.0 mg/kg/injection, schedule: Q01DX001 (ip), vehicle: Klucel (hydroxypropylcellulose) (HPC)): 105 % of control

Structure (SMILES): COc1cc(-c2oc3c(OC)cc(OC)c(O)c3c(=O)c2OC)cc(OC)c1OC
- T/C [7]: 96 % of control
- T/C [8]: 105 % of control
- T/C (dose: 400.0 mg/kg/injection, schedule: Q04DX002 (ip), vehicle: saline with Tween-80): 96 % of control

Structure (SMILES): CCCNC(=O)OCc1cnc2ccc(OC)cc2c1COC(=O)NCCC
- T/C (dose: 50.0 mg/kg/injection, schedule: Q01DX005 (ip), vehicle: Klucel (hydroxypropylcellulose) (HPC)): 96 % of control
- T/C (dose: 100.0 mg/kg/injection, schedule: Q01DX005 (ip), vehicle: Klucel (hydroxypropylcellulose) (HPC)): 96 % of control
- T/C (dose: 200.0 mg/kg/injection, schedule: Q01DX005 (ip), vehicle: Klucel (hydroxypropylcellulose) (HPC)): 93 % of control

Structure (SMILES): COC(=N)c1nc2c(N)nc(-c3ccccc3)nc2[nH]c1=O
- T/C [9]: 98 % of control
- T/C [10]: 98 % of control
- T/C [11]: 97 % of control

Structure (SMILES): Cc1ccc(S(=O)(=O)NCCN(CCN(CCNS(=O)(=O)c2ccc(C)cc2)S(=O)(=O)c2ccc(C)cc2)S(=O)(=O)c2ccc(C)cc2)cc1
- T/C [4]: 101 % of control
- T/C [9]: 92 % of control
- T/C [10]: 90 % of control

Structure (SMILES): NNC(=O)CC(N)C(=O)O (configuration not stated)
- T/C (dose: 25.0 mg/kg/injection, schedule: Q01DX009 (ip), vehicle: saline): 100 % of control
- T/C [4]: 110 % of control
- T/C (dose: 50.0 mg/kg/injection, schedule: Q01DX009 (ip), vehicle: saline): 105 % of control and 122 % of control
- T/C [9]: 108 % of control
- T/C (dose: 100.0 mg/kg/injection, schedule: Q01DX009 (ip), vehicle: saline): 109 % of control and 122 % of control
- T/C [10]: 117 % of control
- T/C (dose: 200.0 mg/kg/injection, schedule: Q01DX009 (ip), vehicle: saline): 116 % of control
- T/C (dose: 400.0 mg/kg/injection, schedule: Q01DX009 (ip), vehicle: saline): 107 % of control

Structure (SMILES): C#CCOC(=O)c1ccccc1
- T/C [1]: 104 % of control
- T/C [2]: 89 % of control
- T/C [3]: 104 % of control and 95 % of control

Structure (SMILES): CCN(C)c1nc(N(C)C)nc(N(C)C)n1
- T/C (dose: 50.0 mg/kg/injection, schedule: Q04DX002 (ip), vehicle: saline with Tween-80): 100 % of control
- T/C (dose: 50.0 mg/kg/injection, schedule: Q04DX002 (ip), vehicle: saline): 109 % of control
- T/C [7]: 107 % of control
- T/C (dose: 100.0 mg/kg/injection, schedule: Q04DX002 (ip), vehicle: saline): 110 % of control
- T/C [8]: 100 % of control
- T/C (dose: 200.0 mg/kg/injection, schedule: Q04DX002 (ip), vehicle: saline): 109 % of control

Structure (SMILES): O=c1ccn2c(n1)OC1C(O)C(CO)OC12 (configuration not stated)
- T/C (dose: 50.0 mg/kg/injection, schedule: Q04DX003 (ip), vehicle: saline): 100 % of control
- T/C (dose: 100.0 mg/kg/injection, schedule: Q04DX003 (ip), vehicle: saline): 103 % of control
- T/C (dose: 200.0 mg/kg/injection, schedule: Q04DX003 (ip), vehicle: saline): 102 % of control
- T/C (dose: 400.0 mg/kg/injection, schedule: Q04DX003 (ip), vehicle: saline): 91 % of control

Structure (SMILES): CNC(=O)OCc1c(COC(=O)NC)c(-c2ccc([N+](=O)[O-])cc2)n(C)c1C
- T/C (dose: 6.25 mg/kg/injection, schedule: Q01DX009 (ip), vehicle: distilled water + Tween-80): 151 % of control and 153 % of control
- T/C (dose: 12.5 mg/kg/injection, schedule: Q01DX009 (ip), vehicle: distilled water + Tween-80): 159 % of control and 169 % of control

Structure (SMILES): Cc1cc(N(CCCl)CCCl)ccc1C=Nc1ccc(F)cc1
- T/C [5]: 104 % of control
- T/C [10]: 155 % of control
- T/C (dose: 264.0 mg/kg/injection, schedule: Q04DX003 (ip), vehicle: saline with Tween-80): 109 % of control
- T/C [11]: 165 % of control
- T/C [6]: 150 % of control
- T/C (dose: 600.0 mg/kg/injection, schedule: Q04DX003 (ip), vehicle: saline with Tween-80): 168 % of control
